In PubChem BioAssay (NCI) one finds TGI and GI50 data, which are given here for 10 molecules.

Some test systems named below: NCI-H522 lung; COLO 205 colon; SW-620 colon; NCI-H226 lung; UACC-257 melanoma; OVCAR-3 ovarian; CAKI-1 renal; SK-MEL-28 melanoma; MOLT-4 leukemia; M14 melanoma.
Common to all, as to experiment: NCI-60 cell line screen, 48 h

Where “and” joins values, the source holds several entries; their conditions need not be identical. Equal entries are not always repeated.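 Briefly, cells in 96-well plates were exposed to five compound concentrations for 48 h, and endpoints were estimated by linear interpolation. The concentration for 50% growth inhibition is given as GI50. TGI marks complete inhibition of growth.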

For the molecule `CC(=O)Nc1ccc(/C=C/[N+](=O)[O-])cc1`, the TGI in the assay on NCI-H522 lung was 0.815 µM; with COLO 205 colon, 7.28 µM; in the assay on SW-620 colon it was 11 µM; with NCI-H226 lung, 3.94 µM; with UACC-257 melanoma, 17 µM; with OVCAR-3 ovarian, 10.7 µM. Also, the TGI was found to be 2.78 µM in the assay on CAKI-1 renal, 4.13 µM in the assay with SK-MEL-28 melanoma, 4.37 µM with MOLT-4 leukemia and 7.01 µM with M14 melanoma.

`COc1ccc(-n2c(SCc3cc(OC)c(OC)c(OC)c3)nc3ccc(C)cc3c2=O)c(OC)c1`: the GI50 is 3.58 µM in the assay with NCI-H522 lung; 3.87 µM with COLO 205 colon; 4.49 µM with SW-620 colon; above 100 µM in the assay on NCI-H226 lung; 7.81 µM in the assay with UACC-257 melanoma; 2.84 µM in the assay on OVCAR-3 ovarian. In addition, the GI50 in the assay on CAKI-1 renal was 2.97 µM; with SK-MEL-28 melanoma, 5.79 µM; in the assay on MOLT-4 leukemia it was 3.15 µM; in the assay on M14 melanoma, 2.7 µM. Further, the TGI in the assay with NCI-H522 lung is 72.7 µM; in the assay on COLO 205 colon, 11.9 µM; in the assay on SW-620 colon, above 100 µM; in the assay with NCI-H226 lung it was above 100 µM; in the assay with UACC-257 melanoma it was above 100 µM; in the assay with OVCAR-3 ovarian, 7.04 µM. Also, the TGI in the assay with CAKI-1 renal is above 100 µM; in the assay on SK-MEL-28 melanoma, above 100 µM; in the assay on MOLT-4 leukemia, above 100 µM; in the assay with M14 melanoma it was 8.55 µM.

For `CC1OC(n2ncc(=O)[nH]c2=O)C=CC1=O` (stereo not given), the TGI in the assay with NCI-H522 lung is 37.6 µM and 36.2 µM; in the assay on COLO 205 colon, above 100 µM; with SW-620 colon it was above 100 µM; in the assay on NCI-H226 lung, above 100 µM; in the assay on UACC-257 melanoma it was above 100 µM; in the assay on OVCAR-3 ovarian it was above 100 µM. Moreover, the TGI in the assay with CAKI-1 renal was above 100 µM; with SK-MEL-28 melanoma it was 93.8 µM and 46 µM; with MOLT-4 leukemia, above 100 µM; with M14 melanoma, > 100 µM and 60.5 µM. Moreover, the GI50 in the assay with COLO 205 colon was > 100 µM and 36.9 µM; with SW-620 colon, > 100 µM and 44.1 µM; in the assay on UACC-257 melanoma, 37 µM; in the assay with MOLT-4 leukemia it was 81.1 µM and 30.2 µM; in the assay with M14 melanoma, 89.4 µM and 20.5 µM.

Turning to `CC(=O)OC[C@H]1O[C@@H](n2ccc(=O)[nH]c2=O)[C@H](OC(C)=O)[C@@H]1OC(C)=O`, the GI50 in the assay on NCI-H522 lung, with COLO 205 colon, with SW-620 colon, with NCI-H226 lung, in the assay with UACC-257 melanoma and with OVCAR-3 ovarian was above 100 µM throughout. Further, the GI50 in the assay with CAKI-1 renal, in the assay on SK-MEL-28 melanoma, in the assay on MOLT-4 leukemia and in the assay on M14 melanoma was above 100 µM each time. Also, the TGI in the assay with NCI-H522 lung, in the assay on COLO 205 colon, with SW-620 colon, in the assay on NCI-H226 lung, with UACC-257 melanoma and with OVCAR-3 ovarian was above 100 µM throughout. Besides, the TGI in the assay with CAKI-1 renal, with SK-MEL-28 melanoma, in the assay with MOLT-4 leukemia and in the assay on M14 melanoma was above 100 µM in each case.

As for `Clc1ccc(-n2nnc(C3=NCCN3)c2-c2ccccc2)cc1`, the TGI with NCI-H522 lung, with COLO 205 colon, in the assay on SW-620 colon, in the assay with NCI-H226 lung, in the assay with UACC-257 melanoma and in the assay on OVCAR-3 ovarian was above 100 µM each time. Besides, the TGI in the assay with CAKI-1 renal, in the assay on SK-MEL-28 melanoma, in the assay with MOLT-4 leukemia and with M14 melanoma was above 100 µM each time.

Consider `CC12CCC3C(CC=C4CC(O)CCC43C)C1C/C(=C\N1CCCC1)C2=O` (stereo not given), for which the GI50 with NCI-H522 lung was above 100 µM; with COLO 205 colon, above 100 µM; in the assay with SW-620 colon, above 100 µM; in the assay on NCI-H226 lung it was above 100 µM; in the assay on UACC-257 melanoma, above 100 µM; with OVCAR-3 ovarian, 42.6 µM. Also, the GI50 is 61.2 µM in the assay with CAKI-1 renal, above 100 µM with SK-MEL-28 melanoma, above 100 µM in the assay on MOLT-4 leukemia and above 100 µM in the assay on M14 melanoma. The TGI with NCI-H522 lung, in the assay on COLO 205 colon, in the assay on SW-620 colon, in the assay with NCI-H226 lung, with UACC-257 melanoma and with OVCAR-3 ovarian was above 100 µM in each case. Besides, the TGI with CAKI-1 renal, with SK-MEL-28 melanoma, with MOLT-4 leukemia and with M14 melanoma was above 100 µM each time.

In the case of `O=C(O)CNc1c2ccccc2nc2ccccc12`, the TGI with NCI-H522 lung, in the assay with COLO 205 colon, in the assay on SW-620 colon, in the assay on NCI-H226 lung, with UACC-257 melanoma and with OVCAR-3 ovarian was above 100 µM throughout. For the same molecule, the TGI with CAKI-1 renal, in the assay on SK-MEL-28 melanoma, with MOLT-4 leukemia and in the assay on M14 melanoma was above 100 µM throughout.

Take `O=C(O)c1cc2ccccc2c(O)c1O`: the TGI was 28.9 µM in the assay on NCI-H522 lung; 31.4 µM with COLO 205 colon; 34.8 µM in the assay on SW-620 colon; 42.7 µM in the assay on NCI-H226 lung; 23.1 µM in the assay on UACC-257 melanoma; 28.9 µM in the assay with OVCAR-3 ovarian. Moreover, the TGI was 33.9 µM with CAKI-1 renal, 18.1 µM with SK-MEL-28 melanoma, above 66.8 µM in the assay on MOLT-4 leukemia and 16.3 µM in the assay on M14 melanoma.

`O=C(O)c1ccc2c(c1)Cc1cc([N+](=O)[O-])ccc1-2`: the TGI in the assay with NCI-H522 lung, with COLO 205 colon, in the assay with SW-620 colon, in the assay with NCI-H226 lung, with UACC-257 melanoma and in the assay with OVCAR-3 ovarian was above 100 µM throughout. For the same molecule, the TGI with CAKI-1 renal, in the assay with SK-MEL-28 melanoma, in the assay with MOLT-4 leukemia and with M14 melanoma was above 100 µM in each case.

For the molecule `COC(=O)C1=C(C)N(NC(N)=O)C2(N)N(NC(N)=O)C(C)=C(C(=O)OC)C12C(=O)OC` (stereo not given), the TGI was above 100 µM in the assay with NCI-H522 lung; above 100 µM with COLO 205 colon; above 100 µM in the assay with SW-620 colon; above 100 µM in the assay on NCI-H226 lung; above 100 µM with UACC-257 melanoma; above 10 µM with OVCAR-3 ovarian. In addition, the TGI in the assay on CAKI-1 renal, in the assay on SK-MEL-28 melanoma, in the assay on MOLT-4 leukemia and in the assay on M14 melanoma was above 100 µM throughout.
